The results in this text go back to publication PMC4809498, “Artonin E Induces Apoptosis via Mitochondrial Dysregulation in SKOV-3 Ovarian Cancer Cells” (PLoS ONE, 2016).

Holding throughout (format): cell-based, human
Data set [1] relates to SKOV-3 cells. The data set can be described thus: DNA fragmentation (laddering) assay. The conditions noted are these: SKOV-3, 8 μg/mL, 24, 48, 72 h, 1.5% agarose gel. As for the experimental part: SKOV-3 cells were treated with artonin E at different time points, and harvested by adding trypsin to promote detachment. The detached cells were spun down and washed two times with cold PBS. The DNA from cells in the suspension was extracted using the suicide Track^TM DNA ladder isolation kit (Calbiochem, EMD Bioscience, Germany). The cells were then lysed by mixing 55 μL of TE (Tris and EDTA) lysis buffer and 20 μL of enzyme A (RNase A). The resulting mixture was incubated at 37°C for 1 h. Subsequently, 25 μL of enzyme B (proteinase K) was added and the lysate was kept in a water bath at 50°C overnight. Following incubation, 2 μL of Pellet Paint, 60 μL of 3M sodium acetate, and 662 μL of 2-propanol were added to the lysate, and the solution was briefly mixed by inversion and incubated at room temperature for 2 min. The DNA was then precipitated by centrifugation of the samples at 16,000×g for 5 min. The supernatant was removed and the fresh pellets were rinsed two times with 70% and 100% ice-cold ethanol. The pellets were air dried at room temperature for a few minutes to discard the ethanol and resuspended with 50 μL of DNA resuspension buffer. The prepared DNA ladder samples were loaded onto a 1.5% gel electrophoresis set up and run at 50 constant volts for 3 h. […]

The subject of data set [2] is SKOV-3 cells. Briefly: Multiparametric Cytotoxicity 3 high-content screening. The note with it: SKOV-3, 8 μg/mL. As for the experimental part:
Cellomics Multiparameter Cytotoxicity 3 kit (Thermo Scientific^TM, Pittsburgh, PA, USA) was used to perform simultaneous detection of the crucial apoptotic events in SKOV-3 cells treated with artonin E. Briefly, SKOV-3 cells were seeded at a density of 5000 cells/well in a black flat-bottomed 96-well plates (PerkinElmer, Inc., Wellsley, MA, USA) and left overnight to attach. The attached cells were treated with 8 μg/mL artonin E for 24, 48, and 72 h. The treated cells were then exposed to 50 μL of live cell staining solution for 30 min. The excess medium and live cell staining solution were gently removed and the cells were then fixed with 16% paraformaldehyde. After fixation, the cells were exposed with permeabilization buffer followed by blocking buffer for 15 min at room temperature. Primary Cytochrome C antibodies and secondary DyLight 649 conjugated goat antimouse IgG were added and allowed to interact for 1 h each. Hoechst 33342 dye was used to stain nuclei in SKOV-3 cells. Stained SKOV-3 cells in the 96-well plates were analyzed using ArrayScan high-content screening (HCS) system. All experiments were conducted in triplicates and experiments were repeated twice.

The subject of a further data set is caspase-8. The data set can be described thus: Western blot, caspase-8. The note with it: SKOV-3, 8 μg/mL, after 48 and 72 h. As to the method:
(§1) SKOV-3 cells were plated in a 75cm^2 culture flask and exposed to artonin E for 24, 48, and 72 h. Lysis buffer (50 mM Tris–HCl, pH 8.0; 120 mM NaCl, 0.5% NP-40; and 1 mM PMSF) was used to extract the total protein. Protein concentration was determined using a BCA protein assay reagent kit (Bio-Rad, USA). Equal amounts of protein (40 μg) extract were subjected to SDS-PAGE and electroblotted onto a polyvinylidenedifluoride membrane (Bio-Rad). Blots were then blocked with 5% non-fat milk in TBS-Tween buffer 7 (0.12 M Tris-base, 1.5 M NaCl, and 0.1% Tween 20) for 1 h at room temperature. After incubating with the appropriate primary antibody overnight at 4°C, the blots were washed and then incubated with horseradish peroxidase conjugated secondary antibody for 1 h at room temperature. The protein bands were detected using pico or femto chemiluminescence (ECL system) and visualized using a UV gel documentation system. The subsequent primary antibodies, which include those for β-actin (1:10,000), Bax (1:10,000), Bcl-2 (1:10,000), HSP-70 (1:10,000), survivin (1:10,000),caspase -3 (1:10,000), caspase -8 (1:10,000), caspase -9 (1;10,000) and cytochrome c (1:200) were purchased from Abcam, Cambridge, United Kingdom.
On the technique in general: In western blotting, separated proteins are transferred to a membrane and probed.

The subject of the next data set is caspase-9. The data set can be described thus: Colorimetric caspase-9 activation assay. The conditions noted are these: SKOV-3, 8 μg/mL, from 24 h, prolonged exposure. As to the method: Calorimetric assay of the activation of caspases-3, -8, and -9 was conducted using R & D system kit, USA. Briefly, in a T75cm^2 flask 90% confluent SKOV-3 cells were induced with artonin E for 24, 48, and 72 h. The induced cells were trypsinized and centrifuged at 1,800 rpm for 10 min. The fresh pellets were washed with cold PBS and immediately lysed with protein lysis buffer. The cell lysate was then kept on ice for 10 min, centrifuged at 10,000 g for 15 min, and transferred into a new tube. The fresh cell lysate (50 μL), which contained 100–200 μg of protein, was added into a 96-well plate in triplicate. Fifty microliters of reaction buffer and 5 μL of caspase were then transferred into each designated well before incubating the plate in a CO2 incubator at 37°C for 2 h. A microplate reader (Tecan Infinite M 200 PRO, Männedorf, Switzerland) was used for analysis at a wavelength of 405 nm.

Data set [3] relates to SKOV-3 cells. Briefly: Cell cycle analysis by flow cytometry. The note with it: SKOV-3, 8 μg/mL, 72 h after treatment. As for the experimental part: SKOV-3 cells at a concentration of 5×10^5 cells were plated into a T75cm^2 flask and incubated overnight to allow attachment. The attached cells were treated with 8 μg/mL of artonin E at different time points. After treatment, the cells were trypsinized and centrifuged at 1,500 rpm for 10 min. The fresh pellets were washed twice with PBS, fixed with 500 μL of 70% cold ethanol, and incubated at −20°C overnight. The remaining ethanol was then removed and the cells were resuspended in PBS containing 20 μL of RNase A (10 μg/mL) and 2 μL of PI (2.5 μg/mL). The resulting mixture was incubated for 30 min at 37°C in the dark. Samples were immediately analyzed using FACS Canto 11 Becton-Dickinson flow cytometry. For each sample, 10,000 cells were measured. ModFit LT software (Verity Software House, Topsham, ME) was used to analyze the percentage of cells at different phases.
Background: Flow cytometry measures light scatter and fluorescence of single cells or particles in a stream.

The next data set has as its system HSP70. Briefly: Western blot, HSP70. The conditions noted are these: SKOV-3, 8 μg/mL, 72 h after treatment. As for the experimental part: as §1

With `CC(C)=CCc1c(-c2cc(O)c(O)cc2O)oc2c3c(cc(O)c2c1=O)OC(C)(C)C=C3` [Artonin E, artonin E], in the data set with SKOV-3 cells [1], the “DNA fragmentation (ladder pattern)” value is reported as “distinctly observed”. The “cytochrome c fluorescence intensities” value in the data set on SKOV-3 cells [2] (prolonged treatment periods) is recorded as “increase”. For the same molecule, in the data set with SKOV-3 cells [2] (time-dependent (24, 48, 72 h)), the cell permeability result is listed as “marked increased” and the “green fluorescence intensity of MMP” value is on record as “significant (p<0.05) reduction”. Moreover, the “protein expression level of caspase-8” value in the data set with caspase-8 was “up-regulated”. In addition, the “stimulation of caspase-9” value in the data set with caspase-9 is recorded as “increased significantly”. For the same molecule, the “accumulation of cells arrested at the S phase” value in the data set with SKOV-3 cells [3] is recorded as “significantly (p<0.05) increased”. Further, the “level of HSP70 expression” value in the data set with HSP70 is “reduced significantly”.
